Results: ChEMBL document CHEMBL3046558, “Effects of inositol 1,2,6-triphosphate on human liver cancer SMMC-7721 cells” (2012)
Active and inactive are the calls of the source. No cut-off for these calls is given here.

Key:
SMMC-7721 [1] = assay: Inhibition of PCNA expression in nucleolus of Homo sapiens (human) SMMC7721 cells […] after 48 hr by immunohistochemistry analysis; format: functional, cell-based
SMMC-7721 [2] = assay: Inhibition of AFP expression in cytoplasm of Homo sapiens (human) SMMC7721 cells […] after 48 hr by immunohistochemistry analysis; format: functional, cell-based
SMMC-7721 [3] = assay: Cell cycle arrest in Homo sapiens (human) SMMC7721 cells assessed as accumulation at G0/G1 phase at 100 ug/ml after 3 days using PI staining by flow cytometry (Rvb =39 %); format: functional
SMMC-7721 [4] = assay: Antiproliferative activity against Homo sapiens (human) SMMC7721 cells at 700 ug/ml after 72 hr by MTT assay; format: functional
SMMC-7721 [5] = assay: Antiproliferative activity against Homo sapiens (human) SMMC7721 cells at 500 ug/ml after 72 hr by MTT assay; format: functional
SMMC-7721 [6] = assay: Antiproliferative activity against Homo sapiens (human) SMMC7721 cells at 100 ug/ml after 72 hr by MTT assay; format: functional
SMMC-7721 [7] = assay: Cell cycle arrest in Homo sapiens (human) SMMC7721 cells assessed as accumulation at S phase at 500 ug/ml after 3 days using PI staining by flow cytometry (Rvb =49.5 %); format: functional
SMMC-7721 [8] = assay: Cell cycle arrest in Homo sapiens (human) SMMC7721 cells assessed as accumulation at G2/M phase at 500 ug/ml after 3 days using PI staining by flow cytometry (Rvb =11.5 %); format: functional
SMMC-7721 [9] = assay: Antiproliferative activity against Homo sapiens (human) SMMC7721 cells at 300 ug/ml after 72 hr by MTT assay; format: functional
SMMC-7721 [10] = assay: Inhibition of AFP expression in nucleolus of Homo sapiens (human) SMMC7721 cells […] after 48 hr by immunohistochemistry analysis; format: functional, cell-based
SMMC-7721 [11] = assay: Antiproliferative activity against Homo sapiens (human) SMMC7721 cells at 50 to 700 ug/ml by MTT assay; format: functional, cell-based; conditions: TDE = time-dependent effect
SMMC-7721 [12] = assay: Effect on morphology of Homo sapiens (human) SMMC7721 cells assessed as disruption of cell structure at 300 ug/ml after 48 hr using HE staining by optical microscopy; format: functional, cell-based
SMMC-7721 [13] = assay: Cell cycle arrest in Homo sapiens (human) SMMC7721 cells assessed as accumulation at G2/M phase at 100 ug/ml after 3 days using PI staining by flow cytometry (Rvb =11.5 %); format: functional
SMMC-7721 [14] = assay: Effect on morphology of Homo sapiens (human) SMMC7721 cells assessed as cell detachment from matrix at 300 ug/ml after 48 hr using HE staining by optical microscopy; format: functional, cell-based
SMMC-7721 [15] = assay: Antiproliferative activity against Homo sapiens (human) SMMC7721 cells at 50 ug/ml after 72 hr by MTT assay; format: functional
SMMC-7721 [16] = assay: Cell cycle arrest in Homo sapiens (human) SMMC7721 cells assessed as accumulation at G0/G1 phase at 500 ug/ml after 3 days using PI staining by flow cytometry (Rvb =39 %); format: functional
SMMC-7721 [17] = assay: Cell cycle arrest in Homo sapiens (human) SMMC7721 cells assessed as accumulation at G2/M phase at 300 ug/ml after 3 days using PI staining by flow cytometry (Rvb =11.5 %); format: functional
SMMC-7721 [18] = assay: Cell cycle arrest in Homo sapiens (human) SMMC7721 cells assessed as accumulation at S phase at 100 ug/ml after 3 days using PI staining by flow cytometry (Rvb =49.5 %); format: functional
SMMC-7721 [19] = assay: Cell cycle arrest in Homo sapiens (human) SMMC7721 cells assessed as accumulation at G0/G1 phase at 300 ug/ml after 3 days using PI staining by flow cytometry (Rvb =39 %); format: functional
SMMC-7721 [20] = assay: Antiproliferative activity against Homo sapiens (human) SMMC7721 cells after 1 to 3 days by MTT assay; format: functional, cell-based
SMMC-7721 [21] = assay: Cell cycle arrest in Homo sapiens (human) SMMC7721 cells assessed as accumulation at S phase at 300 ug/ml after 3 days using PI staining by flow cytometry (Rvb =49.5 %); format: functional

Structure (SMILES): O=P(O)(O)O[C@@H]1[C@H](OP(=O)(O)O)[C@H](O)[C@@H](O)[C@H](O)[C@H]1OP(=O)(O)O [ATRINOSITOL]
- inhibition (SMMC-7721 [1]): Dose-dependent effect
- inhibition (SMMC-7721 [2]): Dose-dependent effect
- Activity (SMMC-7721 [3]): 39.4%
- Activity (SMMC-7721 [4]): 79.08%
- Activity (SMMC-7721 [5]): 67.86%
- Activity (SMMC-7721 [6]): 50.85%
- Activity (SMMC-7721 [7]): 12.3%
- Activity (SMMC-7721 [8]): 19.9%
- Activity (SMMC-7721 [9]): 59.52%
- inhibition (SMMC-7721 [10]): Dose-dependent effect
- Activity (SMMC-7721 [11]): tde
- Activity (SMMC-7721 [12]): Active
- Activity (SMMC-7721 [13]): 21.6%
- Activity (SMMC-7721 [14]): Active
- Activity (SMMC-7721 [15]): 34.87%
- Activity (SMMC-7721 [16]): 68.1%
- Activity (SMMC-7721 [17]): 10.6%
- Activity (SMMC-7721 [18]): 39%
- Activity (SMMC-7721 [19]): 58.9%
- Activity (SMMC-7721 [20]): Dose-dependent effect
- Activity (SMMC-7721 [21]): 30.5%
